What follows are compounds tested against T1, Farnesyl pyrophosphate synthase (Homo sapiens, UniProt P14324) (assay: Inhibition of FPPS (unknown origin)).
T1 sequence (P14324 whole entry): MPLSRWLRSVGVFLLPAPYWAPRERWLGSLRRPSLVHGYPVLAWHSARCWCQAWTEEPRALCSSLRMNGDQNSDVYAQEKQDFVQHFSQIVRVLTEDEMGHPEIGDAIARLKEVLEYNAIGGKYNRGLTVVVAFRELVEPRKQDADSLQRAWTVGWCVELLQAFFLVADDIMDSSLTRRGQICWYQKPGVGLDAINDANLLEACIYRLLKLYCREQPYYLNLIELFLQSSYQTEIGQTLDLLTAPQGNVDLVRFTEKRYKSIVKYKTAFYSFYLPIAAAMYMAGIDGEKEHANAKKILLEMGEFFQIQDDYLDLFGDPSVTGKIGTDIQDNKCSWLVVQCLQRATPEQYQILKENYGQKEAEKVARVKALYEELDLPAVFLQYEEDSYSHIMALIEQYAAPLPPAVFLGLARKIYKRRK

Compound | IC50 [nM]
Cc1ccc(-c2cc3c(NCP(=O)(O)O)ncnc3s2)cc1 | 4500
Cc1ccc(-c2cc3c(NCC(=O)O)ncnc3s2)cc1 | > 20000
Cc1ccc(-c2cc3c(NCP(=O)(O)O)ncnc3s2)cc1Cl | 3300
Cc1ccc(-c2cc3c(NC(c4ccccc4)P(=O)(O)O)ncnc3s2)cc1Cl (stereo not given) | 1200
O=P(O)(O)CCc1cccnc1 | 200
O=P(O)(O)C(Nc1ncnc2sc(-c3ccc(OC4CC4)cc3)cc12)P(=O)(O)O | 200
O=P(O)(O)C(Cc1cccnc1)P(=O)(O)O [(1-phosphono-2-pyridin-3-yl-ethyl)-phosphonic acid] | 200

More lines, now with the values ahead:

IC50 [nM] | Compound
200 | Cc1ccc(-c2cc3c(NCCP(=O)(O)O)ncnc3s2)cc1
200 | Cc1ccc(-c2cc3c(CCP(=O)(O)O)ncnc3s2)cc1
200 | Cc1ccc(-c2cc3c(NC(P(=O)(O)O)P(=O)(O)O)ncnc3s2)cc1
